# Data published in PMC2694132 (Cancer research, 2009).
# Legend:
# Assay type in all cases: in vitro ADME
# UGT1A4 = target: T1, UGT1A4 (Homo sapiens, UniProt P22310); assay: SAHA glucuronidation screen, UGT1A4-overexpressing cell homogenate
# T1 sequence (P22310 29-534): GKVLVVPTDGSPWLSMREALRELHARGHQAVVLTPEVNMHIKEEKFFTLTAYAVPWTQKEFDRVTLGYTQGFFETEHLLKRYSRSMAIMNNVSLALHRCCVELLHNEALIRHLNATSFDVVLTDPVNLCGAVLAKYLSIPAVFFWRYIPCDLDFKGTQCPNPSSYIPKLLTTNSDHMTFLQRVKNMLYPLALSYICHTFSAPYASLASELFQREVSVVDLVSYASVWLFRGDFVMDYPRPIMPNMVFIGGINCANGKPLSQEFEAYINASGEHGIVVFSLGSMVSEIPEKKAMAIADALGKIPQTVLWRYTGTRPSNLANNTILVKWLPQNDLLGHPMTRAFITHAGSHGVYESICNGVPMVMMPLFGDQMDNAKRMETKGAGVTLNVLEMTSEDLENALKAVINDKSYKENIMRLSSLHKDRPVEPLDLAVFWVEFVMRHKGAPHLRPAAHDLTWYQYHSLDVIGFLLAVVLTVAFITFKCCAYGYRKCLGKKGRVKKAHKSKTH
# UGT1A8 = target: T2, UGT1A8 (Homo sapiens, UniProt Q9HAW9); assay: SAHA glucuronidation, wild-type UGT1A8
# T2 sequence (Q9HAW9 26-530): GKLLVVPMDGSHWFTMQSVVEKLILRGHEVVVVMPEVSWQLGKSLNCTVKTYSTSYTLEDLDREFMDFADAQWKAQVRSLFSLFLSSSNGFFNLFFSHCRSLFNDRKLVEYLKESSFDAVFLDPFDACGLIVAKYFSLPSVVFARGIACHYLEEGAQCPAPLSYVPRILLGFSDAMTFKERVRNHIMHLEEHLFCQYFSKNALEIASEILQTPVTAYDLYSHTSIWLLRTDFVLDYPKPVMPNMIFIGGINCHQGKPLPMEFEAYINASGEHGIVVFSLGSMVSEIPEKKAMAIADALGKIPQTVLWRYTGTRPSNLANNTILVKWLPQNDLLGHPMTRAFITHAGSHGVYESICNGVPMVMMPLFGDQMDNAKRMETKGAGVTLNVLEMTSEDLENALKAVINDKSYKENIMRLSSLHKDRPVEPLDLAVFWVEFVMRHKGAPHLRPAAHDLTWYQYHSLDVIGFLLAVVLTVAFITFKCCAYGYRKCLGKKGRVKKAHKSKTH
# UGT1A7 = target: T3, UGT1A7 (Homo sapiens, UniProt Q9HAW7); assay: SAHA glucuronidation, wild-type UGT1A7
# T3 sequence (Q9HAW7 26-530): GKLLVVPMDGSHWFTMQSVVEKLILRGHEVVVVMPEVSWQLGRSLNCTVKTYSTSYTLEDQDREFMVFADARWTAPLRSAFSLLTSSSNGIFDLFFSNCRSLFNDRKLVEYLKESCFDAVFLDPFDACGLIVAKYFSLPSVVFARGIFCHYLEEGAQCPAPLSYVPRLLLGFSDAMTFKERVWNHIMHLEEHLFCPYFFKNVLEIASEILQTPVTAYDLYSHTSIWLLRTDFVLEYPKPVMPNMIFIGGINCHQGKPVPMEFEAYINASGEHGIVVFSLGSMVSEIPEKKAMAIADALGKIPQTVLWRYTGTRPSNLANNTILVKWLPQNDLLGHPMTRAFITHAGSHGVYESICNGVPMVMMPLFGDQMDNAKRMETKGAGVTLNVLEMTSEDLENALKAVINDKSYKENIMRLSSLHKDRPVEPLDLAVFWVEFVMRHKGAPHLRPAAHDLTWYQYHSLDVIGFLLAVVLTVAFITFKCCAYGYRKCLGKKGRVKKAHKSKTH
# UGT1A6 = target: T4, UGT1A6 (Homo sapiens, UniProt P19224); assay: SAHA glucuronidation screen, UGT1A6-overexpressing cell homogenate
# T4 sequence (P19224 27-532): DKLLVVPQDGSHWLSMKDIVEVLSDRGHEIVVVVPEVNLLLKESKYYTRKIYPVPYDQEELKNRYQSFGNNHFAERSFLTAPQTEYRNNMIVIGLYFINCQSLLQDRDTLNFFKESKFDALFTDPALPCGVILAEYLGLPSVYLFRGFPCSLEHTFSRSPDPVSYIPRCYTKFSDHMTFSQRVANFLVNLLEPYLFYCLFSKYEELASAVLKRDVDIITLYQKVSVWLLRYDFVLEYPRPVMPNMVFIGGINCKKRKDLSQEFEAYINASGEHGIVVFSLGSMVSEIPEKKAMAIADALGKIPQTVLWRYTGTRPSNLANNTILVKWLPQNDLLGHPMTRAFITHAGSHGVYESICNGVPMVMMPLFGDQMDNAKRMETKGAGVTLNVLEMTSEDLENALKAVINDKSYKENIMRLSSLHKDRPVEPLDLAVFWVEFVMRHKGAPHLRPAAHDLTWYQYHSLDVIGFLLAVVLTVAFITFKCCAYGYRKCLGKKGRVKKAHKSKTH
# UGT2B10 = target: T5, UGT2B10 (Homo sapiens, UniProt P36537); assay: SAHA glucuronidation screen, UGT2B10-overexpressing cell homogenate; conditions: 400 μg UGT-overexpressing cell homogenate, 1-h incubation
# T5 sequence (P36537 24-528): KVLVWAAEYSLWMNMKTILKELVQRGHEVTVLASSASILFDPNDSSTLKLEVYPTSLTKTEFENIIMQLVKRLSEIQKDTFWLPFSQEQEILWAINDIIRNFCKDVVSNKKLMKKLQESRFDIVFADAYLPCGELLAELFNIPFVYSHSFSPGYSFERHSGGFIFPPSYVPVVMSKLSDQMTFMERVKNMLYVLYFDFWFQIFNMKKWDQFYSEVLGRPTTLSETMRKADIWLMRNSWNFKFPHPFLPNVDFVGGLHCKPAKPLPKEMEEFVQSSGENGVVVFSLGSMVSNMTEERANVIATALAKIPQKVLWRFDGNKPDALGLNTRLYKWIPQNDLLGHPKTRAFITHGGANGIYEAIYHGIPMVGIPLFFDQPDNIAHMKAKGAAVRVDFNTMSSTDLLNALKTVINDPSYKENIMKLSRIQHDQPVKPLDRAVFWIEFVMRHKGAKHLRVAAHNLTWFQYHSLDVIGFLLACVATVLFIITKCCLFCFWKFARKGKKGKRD
# [1] = 400 μg UGT-overexpressing cell homogenate, 1-h incubation
smiles,measurement,setting,value
"O=C(CCCCCCC(=O)Nc1ccccc1)NO [SAHA, Suberoylanilide hydroxamic acid]",glucuronidation against SAHA,UGT1A4; [1],detectable levels of glucuronidation
same,Km at 1 h,"UGT1A4; human, UGT1A4-overexpressing cell homogenate, pH 7.5",> 8000 µM
same,glucuronidation against SAHA (screen),UGT1A8; [1],high levels of glucuronidation
same,Km at 1 h,"UGT1A8; human, pH 7.5",1900 ± 100 µM
same,glucuronidation against SAHA (screen),UGT1A7; [1],high levels of glucuronidation
same,Km at 1 h,"UGT1A7; human, pH 7.5",2700 ± 600 µM
same,glucuronidation against SAHA,UGT1A6; [1],detectable levels of glucuronidation
same,Km at 1 h,"UGT1A6; human, UGT1A6-overexpressing cell homogenate, pH 7.5",> 8000 µM
same,glucuronidation activity against SAHA (screen),UGT2B10,No detectable glucuronidation activity
